Source: patent US5371186A, “Synthetic peptides for detoxification of bacterial endotoxins and for the prevention and treatment of septic shock” (priority 1992, dated 1994)

Tests used:
[1] = test system: Vibrio cholerae; experiment: antibiotic activity, zone of inhibition on BHI plates; format: cell-based, V. choleras; details: 18 hours
Experimental: (§1) The following experiments compared the antibiotic activity of Polymyxin "B" with various peptides of the invention.
(§2) The tests were performed on BHI plates with liquid cultures of the test organism to give a lawn. Each peptide was diluted in water and placed on sterile Wathmam 3M disks on the surface of the plate. The plates were dried and incubated at 37° C. The zone of inhibition was measured after 18 hours: […]

[2] = survival of Balb/c mice after endotoxin challenge; format: in vivo, mice (Strain Balb/c); details: for % survival / Mice surviving: peptides 1 mg/mouse, Polymyxin B 0.1 mg/mouse i.v., 1 mg endotoxin i.p.; for Mice surviving: 20 mice per group
Experimental: Groups of 20 mice Balb/c have been treated intravenously with the peptides of the invention at the dose of 1 mg/mouse or with 0.1 mg/mouse of Polymyxin B (the highest dose of this drug tolerated in the mouse, when injected alone). Thirty minutes later, mice were challenged by intraperitoneal injection of 1 mg endotoxin from E.C strain 055-B5. Surviving mice were recorded every 24 hours during a seven days-period of observation. Negative controls received an intravenous injection of saline.
There were 20 mice per group. Mice surviving at each of the seven 24 hours observation periods are listed. The % survival appears in parenthesis. P expresses the level of statistical significance calculated by "t-Test" for each molecule compared to the treatment with saline, considering the total survival rate in each group.

[3] = same species of mice (Swiss Webster); cited from earlier work
[4] = Rabbit pyrogen test of peptide/LPS complexes; format: in vivo; details: rabbits, complex with LPS injected, three hours observation
Excerpt: (§3) As a consequence of this high-affinity binding to the Lipid A moiety of endotoxins, most of the synthetic peptide analogs have shown the ability to detoxify endotoxins as evidenced by in vitro as well as in vivo analysis. The in vitro test used, as measure of detoxification, the inhibition of the enzymatic cascade leading to the coagulation of the Lymulus lysate (LAL test) by endotoxin. The LAL test is recognized as the most sensitive and predictive test for the toxic and pyrogenic activity of LPS, since pyrogenicity in vivo is related to the release of the endogenous immune modulators Interleukin-1 (IL-l) and alfa-Tumor necrosis factor (α-TNF), the mediators responsible for the fatalities associated to septic shock. As an in vivo test confirming detoxification of LPS, was then used the Rabbit pyrogen test performed according to the United States Pharmacopeia XXI.
In order to verify "in vivo" the detoxifying activity of the peptides, we have injected five groups of three rabbits each with the complexes formed by two representative synthetic peptide analogs with LPS. The pyrogenicity test has been executed according to the United States Pharmacopeia (Vol. XXI)/The National formulary (Vol. XVI), Combined Edition, Jan. 1, 1985. As a negative control in the test, the complex formed by Polymyxin "B" and LPS was injected. As a positive control free LPS was injected. […]

[5] = test system: Salmonella Typhi; experiment: antibiotic activity, zone of inhibition on BHI plates; format: cell-based, S. typhi; details: 18 hours
Experimental: as §1, §2

[6] = stoichiometry of the complexes with LPS by amino acid analysis; format: binding; details: 10 μg B. Pertussis LPS (2.64 nmoles Lipid A) + 10 μg peptide
Experimental: Quantitation of the amount of precipitated peptides present in the complexes with PLS of B. pertussis has been done by amino acid analysis after acid hydrolysis (by 6 M HCl) of the complexes recovered by centrifugation at 3,000 rpm×15 minutes. In Table III, the stoichiometry of some complexes is reported as calculated by the ratio (on molar basis) between the amount of each peptide and the amount of Lipid A present in the structure of LPS used in the experiments:
*Complexes formed between 10 μg of B. Pertussis LPS (equivalent to 4.5
μg of Lipid A of 2.64 nmoles) and 10 μg of peptide (twice the amoun
corresponding to the saturation point found for Polymyxin "B" in the
**Values represent the average of two separate experiments of amino acid
analysis after acid hydrolysis of the recovered complexes.

[7] = Limulus (LAL) test, inhibition of LPS-induced gelation; format: biochemical, B. Pertussis; details: LPS/Pept (w/w) 1; LPS 0.1 μg
Excerpt: as §3
The results obtained by the Limulus (LAL) test, shown in Table V, support the data obtained by measuring the Affinity of the peptides of the invention for the Lipid A moiety of LPS in that they were substantially equivalent to Polymyxin "B" in the inhibition of LPS activity on Limulus. […] Peptide I was, in fact, the one presenting the non complete structure needed for the mimick of Polymyxin "B" as the synthetic peptide analogs II, IV, VI and VII have clearly shown in the previous Table IV. […]

[8] = test system: trypsin in human serum; experiment: stability towards proteolysis by trypsin in human serum; format: in vitro ADME
Experimental: The effects of trypsin present in human serum on Polymyxin "B" and the peptides of invention was determined by combining 10 μl of human serum with 20 μg of the given peptide in 10 μl volume and holding the mixture at a temperature of 37° C. for different intervals of time. At various times, an aliquot of the mixture was processed by HPLC analysis in order to detect the residual amount of the investigated peptide. In Table VI the half-lives time of each peptide investigated are shown as compared to the half-life time of Polymyxin "B".

Substance: Polymyxin "B"
- Zone (mm) of inhibition V. choleras ([1]; 0.008 μg/ml): 1 mm
- Zone (mm) of inhibition V. choleras ([1]; 0.04 μg/ml): 2 mm
- Zone (mm) of inhibition V. choleras ([1]; 0.2 μg/ml): 2.5 mm
- Zone (mm) of inhibition V. choleras ([1]; 1.0 μg/ml): 5 mm
- % survival ([2]; 24 hs): 90%
- Mice surviving ([2]; 24 hs): 18
- % survival ([2]; 48 hs): 70%
- Mice surviving ([2]; 48 hs): 14
- % survival ([2]; 72 hs): 60%
- Mice surviving ([2]; 72 hs): 12
- % survival ([2]; 96 hs): 0%
- Mice surviving ([2]; 96 hs): 0
- % survival ([2]; 120 hs): 0%
- Mice surviving ([2]; 120 hs): 0
- % survival ([2]; 144 hs): 0%
- Mice surviving ([2]; 144 hs): 0
- % survival ([2]; 168 hs): 0%
- Mice surviving ([2]; 168 hs): 0
- safety and efficacy of treatment ([2]; Balb/c mice, 1 mg endotoxin challenge): resulted efficacious only within three days following the endotoxin challenge
- LD50 [3]: 2.5 to 5 mg/kg
- pyrogenicity (temperature increase) of complex with LPS [4]: did not show either of the two waves of temperature increase
- Zone (mm) of inhibition S. typhi ([5]; 0.008 μg/ml): 0 mm
- Zone (mm) of inhibition S. typhi ([5]; 0.04 μg/ml): 1 mm
- Zone (mm) of inhibition S. typhi ([5]; 0.2 μg/ml): 2 mm
- Zone (mm) of inhibition S. typhi ([5]; 1.0 μg/ml): 4 mm
- Ratio peptide/LipA [6]: 1.02 mol/mol
- Amount of peptide in the complex ([6]; average of two experiments): 2.69 nmol
- LAL TEST [7]: NEGATIVE
- stability in the presence of proteolytic enzymes such as trypsin [8]: stable in the presence of trypsin
- Half-Life Time (t/2) ([8]; human serum, 37° C.): > 3 h
